Source: patent US20260191968A1, “PROTAC DEGRADERS OF MLLT1 AND/OR MLLT3” (DARK BLUE THERAPEUTICS LTD, priority 2024, published 2026)

Columns and labels:
MLLT1 = target: T1, MLLT1 (Homo sapiens, UniProt Q03111); test: MLLT1 degradation assay in MV4-11 cells (JESS chemiluminescent detection), three concentrations, 24 h; assay type: cell-based; details: with respect to DMSO control
T1 construct: host or cells: MV4-11
T1 sequence (Q03111 1-559): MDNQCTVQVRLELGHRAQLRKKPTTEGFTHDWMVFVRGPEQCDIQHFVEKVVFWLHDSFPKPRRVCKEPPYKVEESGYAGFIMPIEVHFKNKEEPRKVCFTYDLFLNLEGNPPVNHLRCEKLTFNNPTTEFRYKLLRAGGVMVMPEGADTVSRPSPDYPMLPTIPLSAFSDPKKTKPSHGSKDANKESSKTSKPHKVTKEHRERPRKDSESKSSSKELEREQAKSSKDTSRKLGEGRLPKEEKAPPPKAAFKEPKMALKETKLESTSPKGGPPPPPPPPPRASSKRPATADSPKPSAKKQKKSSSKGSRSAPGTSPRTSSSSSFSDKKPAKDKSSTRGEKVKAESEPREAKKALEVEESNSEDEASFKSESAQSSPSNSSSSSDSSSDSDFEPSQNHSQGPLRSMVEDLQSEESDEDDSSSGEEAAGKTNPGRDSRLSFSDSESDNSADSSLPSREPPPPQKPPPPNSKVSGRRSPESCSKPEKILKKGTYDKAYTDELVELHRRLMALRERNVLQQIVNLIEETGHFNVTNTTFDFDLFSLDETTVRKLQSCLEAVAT
Summary of the method: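 MV4-11 cells treated 24 h at 37° C, 5% CO2 with 1000, 100 and 10 nM compound (0.1% DMSO final). MLLT1 quantified by automated capillary chemiluminescent immunodetection; band peak area expressed as % degradation relative to DMSO control.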

MV4-11 cells = test: MV4-11 cellular proliferative assay, Assay Format B (CTG 2.0, 168 h); assay type: cell-based; details: Homo sapiens, 168 h (7 days), CTG 2.0, read-out: IC50 (MV4-11 cellular proliferative assay, Assay format B)
Summary of the method: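 MV4-11 cells seeded overnight in IMDM + 10% FBS, then exposed to 10-point, 3-fold dilutions from 1 uM or 100 nM top concentration (0.3% DMSO final) for 168 h at 37 °C. CTG 2.0 luminescence read; % viability vs DMSO control fitted by four-parameter logistic regression.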

SMILES: CN1CCC[C@@H]1c1cc2cnc(NC(=O)c3ccc(CCCC#Cc4ccc(F)c5c4CN(C4CCC(=O)NC4=O)C5=O)cc3)cc2[nH]1 (stereo partly drawn) [Example 91, 4-(5-(2-(2,6-dioxopiperidin-3-yl)-7-fluoro-1-oxoisoindolin-4-yl)pent-4-yn-1-yl)-N-(2-((R)-1-methylpyrrolidin-2-yl)-1H-pyrrolo[3,2-c]pyridin-6-yl)benzamide]
- MLLT1% Degradation @ 0.01 μM (MLLT1): A (Category A: A ≥ 75% degradation)
- MLLT1% Degradation @ 0.1 μM (MLLT1): A (Category A: A ≥ 75% degradation)
- MLLT1% Degradation @ 1 μM (MLLT1): A (Category A: A ≥ 75% degradation)
- IC50 (MV4-11 cells): ≤ 100 nM

SMILES: CN1CCC[C@@H]1c1cc2cnc(NC(=O)c3ccc(N4CCC(OC5CCN(c6cccc7c6CN(C6CCC(=O)NC6=O)C7=O)CC5)CC4)cc3)cc2[nH]1 (stereo partly drawn) [Example 137, 4-(4-((1-(2-(2,6-dioxopiperidin-3-yl)-1-oxoisoindolin-4-yl)piperidin-4-yl)oxy)piperidin-1-yl)-N-(2-((R)-1-methylpyrrolidin-2-yl)-1H-pyrrolo[3,2-c]pyridin-6-yl)benzamide]
- MLLT1% Degradation @ 0.01 μM (MLLT1): A (Category A: A ≥ 75% degradation)
- MLLT1% Degradation @ 0.1 μM (MLLT1): A (Category A: A ≥ 75% degradation)
- MLLT1% Degradation @ 1 μM (MLLT1): A (Category A: A ≥ 75% degradation)
- IC50 (MV4-11 cells): ≤ 100 nM

SMILES: CN1CCC[C@@H]1c1cc2cnc(NC(=O)c3ccc(OCCCC#Cc4cccc5c4CN(C4CCC(=O)NC4=O)C5=O)cc3F)cc2[nH]1 (stereo partly drawn) [Example 213, 4-((5-(2-(2,6-dioxopiperidin-3-yl)-1-oxoisoindolin-4-yl)pent-4-yn-1-yl)oxy)-2-fluoro-N-(2-((R)-1-methylpyrrolidin-2-yl)-1H-pyrrolo[3,2-c]pyridin-6-yl)benzamide]
- MLLT1% Degradation @ 0.01 μM (MLLT1): A (Category A: A ≥ 75% degradation)
- MLLT1% Degradation @ 0.1 μM (MLLT1): A (Category A: A ≥ 75% degradation)
- MLLT1% Degradation @ 1 μM (MLLT1): A (Category A: A ≥ 75% degradation)
- IC50 (MV4-11 cells): ≤ 100 nM

SMILES: CN1CCC[C@@H]1c1cc2cnc(NC(=O)c3cnc(N4CCC(CC#Cc5cccc6c5CN(C5CCC(=O)NC5=O)C6=O)CC4)cn3)cc2[nH]1 (stereo partly drawn) [Example 154, 5-(4-(3-(2-(2,6-dioxopiperidin-3-yl)-1-oxoisoindolin-4-yl)prop-2-yn-1-yl)piperidin-1-yl)-N-(2-((R)-1-methylpyrrolidin-2-yl)-1H-pyrrolo[3,2-c]pyridin-6-yl)pyrazine-2-carboxamide]
- MLLT1% Degradation @ 0.01 μM (MLLT1): A (Category A: A ≥ 75% degradation)
- MLLT1% Degradation @ 0.1 μM (MLLT1): A (Category A: A ≥ 75% degradation)
- MLLT1% Degradation @ 1 μM (MLLT1): A (Category A: A ≥ 75% degradation)
- IC50 (MV4-11 cells): ≤ 100 nM

SMILES: CN1CCC[C@@H]1c1cc2cnc(NC(=O)c3ccc(OCCC4CCN(c5cccc6c5CN(C5CCC(=O)NC5=O)C6=O)CC4)c(F)c3F)cc2[nH]1 (stereo partly drawn) [Example 231, 4-(2-(1-(2-(2,6-dioxopiperidin-3-yl)-1-oxoisoindolin-4-yl)piperidin-4-yl)ethoxy)-2,3-difluoro-N-(2-((R)-1-methylpyrrolidin-2-yl)-1H-pyrrolo[3,2-c]pyridin-6-yl)benzamide]
- MLLT1% Degradation @ 0.01 μM (MLLT1): A (Category A: A ≥ 75% degradation)
- MLLT1% Degradation @ 0.1 μM (MLLT1): A (Category A: A ≥ 75% degradation)
- MLLT1% Degradation @ 1 μM (MLLT1): A (Category A: A ≥ 75% degradation)
- IC50 (MV4-11 cells): ≤ 100 nM

SMILES: CN1CCC[C@@H]1c1[nH]c2cc(NC(=O)c3ccc(OCCC4CCN(c5cccc6c5CN(C5CCC(=O)NC5=O)C6=O)CC4)cc3F)ncc2c1Cl (stereo partly drawn) [Example 190, N-(3-chloro-2-((R)-1-methylpyrrolidin-2-yl)-1H-pyrrolo[3,2-c]pyridin-6-yl)-4-(2-(1-(2-(2,6-dioxopiperidin-3-yl)-1-oxoisoindolin-4-yl)piperidin-4-yl)ethoxy)-2-fluorobenzamide]
- MLLT1% Degradation @ 0.01 μM (MLLT1): B (Category B: 50% ≤ B < 75% degradation)
- MLLT1% Degradation @ 0.1 μM (MLLT1): A (Category A: A ≥ 75% degradation)
- MLLT1% Degradation @ 1 μM (MLLT1): A (Category A: A ≥ 75% degradation)
- IC50 (MV4-11 cells): ≤ 100 nM

SMILES: CN1CCC[C@@H]1c1cc2cnc(NC(=O)c3ccc(OC4CCN(CC5CCN(c6ccc7c(c6)CN(C6CCC(=O)NC6=O)C7=O)CC5)CC4)cc3)cc2[nH]1 (stereo partly drawn) [Example 143, 4-((1-((1-(2-(2,6-dioxopiperidin-3-yl)-1-oxoisoindolin-5-yl)piperidin-4-yl)methyl)piperidin-4-yl)oxy)-N-(2-((R)-1-methylpyrrolidin-2-yl)-1H-pyrrolo[3,2-c]pyridin-6-yl)benzamide]
- MLLT1% Degradation @ 0.01 μM (MLLT1): A (Category A: A ≥ 75% degradation)
- MLLT1% Degradation @ 0.1 μM (MLLT1): A (Category A: A ≥ 75% degradation)
- MLLT1% Degradation @ 1 μM (MLLT1): A (Category A: A ≥ 75% degradation)
- IC50 (MV4-11 cells): ≤ 100 nM

SMILES: CN1CCC[C@@H]1c1cc2cnc(NC(=O)c3ccc(N4CCC(CC#Cc5cccc6c5CN(C5CCC(=O)NC5=O)C6=O)CC4)nc3)cc2[nH]1 (stereo partly drawn) [Example 16, 6-(4-(3-(2-(2,6-dioxopiperidin-3-yl)-1-oxoisoindolin-4-yl)prop-2-yn-1-yl)piperidin-1-yl)-N-(2-((R)-1-methylpyrrolidin-2-yl)-1H-pyrrolo[3,2-c]pyridin-6-yl)nicotinamide]
- MLLT1% Degradation @ 0.01 μM (MLLT1): A (Category A: A ≥ 75% degradation)
- MLLT1% Degradation @ 0.1 μM (MLLT1): A (Category A: A ≥ 75% degradation)
- MLLT1% Degradation @ 1 μM (MLLT1): B (Category B: 50% ≤ B < 75% degradation)
- IC50 (MV4-11 cells): ≤ 100 nM

SMILES: CN1CCC[C@@H]1c1cc2cnc(NC(=O)c3ccc(N4CCC(CN5CCN(c6cccc7c6CN(C6CCC(=O)NC6=O)C7=O)CC5)CC4)nc3)cc2[nH]1 (stereo partly drawn) [Example 168, 6-(4-((4-(2-(2,6-dioxopiperidin-3-yl)-1-oxoisoindolin-4-yl)piperazin-1-yl)methyl)piperidin-1-yl)-N-(2-((R)-1-methylpyrrolidin-2-yl)-1H-pyrrolo[3,2-c]pyridin-6-yl)nicotinamide]
- MLLT1% Degradation @ 0.01 μM (MLLT1): A (Category A: A ≥ 75% degradation)
- MLLT1% Degradation @ 0.1 μM (MLLT1): A (Category A: A ≥ 75% degradation)
- MLLT1% Degradation @ 1 μM (MLLT1): A (Category A: A ≥ 75% degradation)
- IC50 (MV4-11 cells): ≤ 100 nM

SMILES: C[C@@H]1CN(CC2CCN(c3cccc4c3CN(C3CCC(=O)NC3=O)C4=O)CC2)CCN1c1ccc(C(=O)Nc2cc3[nH]c([C@H]4CCCN4C)cc3cn2)cn1 (stereo partly drawn) [Example 163, 6-((2R)-4-((1-(2-(2,6-dioxopiperidin-3-yl)-1-oxoisoindolin-4-yl)piperidin-4-yl)methyl)-2-methylpiperazin-1-yl)-N-(2-((R)-1-methylpyrrolidin-2-yl)-1H-pyrrolo[3,2-c]pyridin-6-yl)nicotinamide]
- MLLT1% Degradation @ 0.01 μM (MLLT1): A (Category A: A ≥ 75% degradation)
- MLLT1% Degradation @ 0.1 μM (MLLT1): A (Category A: A ≥ 75% degradation)
- MLLT1% Degradation @ 1 μM (MLLT1): A (Category A: A ≥ 75% degradation)
- IC50 (MV4-11 cells): ≤ 100 nM

SMILES: CN1CCC[C@@H]1c1cc2cnc(NC(=O)c3ccc(CCCC#Cc4cc(F)cc5c4CN(C4CCC(=O)NC4=O)C5=O)cc3)cc2[nH]1 (stereo partly drawn) [Example 101, 4-(5-(2-(2,6-dioxopiperidin-3-yl)-6-fluoro-1-oxoisoindolin-4-yl)pent-4-yn-1-yl)-N-(2-((R)-1-methylpyrrolidin-2-yl)-1H-pyrrolo[3,2-c]pyridin-6-yl)benzamide]
- MLLT1% Degradation @ 0.01 μM (MLLT1): A (Category A: A ≥ 75% degradation)
- MLLT1% Degradation @ 0.1 μM (MLLT1): A (Category A: A ≥ 75% degradation)
- MLLT1% Degradation @ 1 μM (MLLT1): A (Category A: A ≥ 75% degradation)
- IC50 (MV4-11 cells): ≤ 100 nM

SMILES: [2H]C([2H])([2H])N1CCC[C@@H]1c1cc2cnc(NC(=O)c3ccc(CCCC#Cc4cccc5c4CN(C4CCC(=O)NC4=O)C5=O)cc3)cc2[nH]1 (stereo partly drawn) [Example 111, 4-(5-(2-(2,6-dioxopiperidin-3-yl)-1-oxoisoindolin-4-yl)pent-4-yn-1-yl)-N-(2-((R)-1-(methyl-d3)pyrrolidin-2-yl)-1H-pyrrolo[3,2-c]pyridin-6-yl)benzamide]
- MLLT1% Degradation @ 0.01 μM (MLLT1): A (Category A: A ≥ 75% degradation)
- MLLT1% Degradation @ 0.1 μM (MLLT1): A (Category A: A ≥ 75% degradation)
- MLLT1% Degradation @ 1 μM (MLLT1): A (Category A: A ≥ 75% degradation)
- IC50 (MV4-11 cells): ≤ 100 nM

SMILES: CN1CCC[C@@H]1c1cc2cnc(NC(=O)c3ccc(N4CCC(OCC5CCN(c6cccc7c6CN(C6CCC(=O)NC6=O)C7=O)CC5)CC4)nc3)cc2[nH]1 (stereo partly drawn) [Example 147, 6-(4-((1-(2-(2,6-dioxopiperidin-3-yl)-1-oxoisoindolin-4-yl)piperidin-4-yl)methoxy)piperidin-1-yl)-N-(2-((R)-1-methylpyrrolidin-2-yl)-1H-pyrrolo[3,2-c]pyridin-6-yl)nicotinamide]
- MLLT1% Degradation @ 0.01 μM (MLLT1): A (Category A: A ≥ 75% degradation)
- MLLT1% Degradation @ 0.1 μM (MLLT1): A (Category A: A ≥ 75% degradation)
- MLLT1% Degradation @ 1 μM (MLLT1): A (Category A: A ≥ 75% degradation)
- IC50 (MV4-11 cells): ≤ 100 nM
